# Laboratory results: US9273014B2, “Bis(fluoroalkyl)-1,4-benzodiazepinone compounds and prodrugs thereof” (Bristol-Myers Squibb Company, priority 2012, dated 2016)
# Columns and labels:
# [1] = in vitro; conditions: human, microsomes, pH 7.4
# [2] = biological target: human Notch 3 (Homo sapiens, UniProt Q9UM47); experiment: Notch-CBF1 Transactivation Assay (Notch 3); format: cell-based; conditions: HeLa cells co-transfected with truncated Notch 3 and CBF1 luciferase reporter; 18 hours incubation
# Description: Notch-CBF1 Transactivation Assay
# The Notch-CBF1 (C-promoter binding factor I) cell based transactivation assay is based on the ability of the released Notch intracellular domain fragments (NICDs) to function as transcription factors in conjunction with CBF1 and other nuclear factors. Luciferase assays were used to measure the antagonism of Notch-CBF1 transcriptional activity. HeLa cervical cancer cells are transiently co-transfected with pCDNA3.1/Hygro plasmids containing truncated Notch 1, Notch 2, Notch 3, or Notch 4 receptors and a PGL3 luciferase reporter vector containing 4 copies of CBF1 binding site. The cells were then tested for Notch-CBF1 activity in the absence or presence of test compounds. HeLa cells, maintained in DMEM (high glucose with HEPES), 1× glutamine/penicillin/streptomycin and 10% Fetal Bovine serum, were transiently transfected in a T175 Flask (4.5×10^6 cells/flask) using the Monster Transfection Kit (Minis #MIR2906) according to manufacturers specifications. Table 9 denotes respective DNA quantity for the transfections.
# Assay media (5 μL) containing test compounds in final concentrations ranging from 5 μM to 8.4×10^−5 μM (3 fold serial dilutions) were added to the cells and the cell plates were then incubated for 18 hours at 37° C. and 5% CO2. Control wells contained DMSO vehicle (total counts) or 0.5 μM of an in-house small molecule inhibitor (background counts). Duplicates were used for each sample. Luciferase activity was measured after a 20-minute incubation with 50 μl STEADY-GLO® luciferase reagents according to manufacturer's specifications (Promega, Cat. #E2550) and analyzed by Envision plate reader (PerkinElmer, Boston, Mass.).
# The antagonist effect of compounds was expressed as 100×[1−(average sample-average background)/(average total−average background)] where sample is the luciferase activity in the presence of test compound, background is equal to the luciferase activity in the presence of the small molecule inhibitor control and the total is signal induced in DMSO wells.
# human Notch 3, sequence (Q9UM47 40-2321 limits assumed): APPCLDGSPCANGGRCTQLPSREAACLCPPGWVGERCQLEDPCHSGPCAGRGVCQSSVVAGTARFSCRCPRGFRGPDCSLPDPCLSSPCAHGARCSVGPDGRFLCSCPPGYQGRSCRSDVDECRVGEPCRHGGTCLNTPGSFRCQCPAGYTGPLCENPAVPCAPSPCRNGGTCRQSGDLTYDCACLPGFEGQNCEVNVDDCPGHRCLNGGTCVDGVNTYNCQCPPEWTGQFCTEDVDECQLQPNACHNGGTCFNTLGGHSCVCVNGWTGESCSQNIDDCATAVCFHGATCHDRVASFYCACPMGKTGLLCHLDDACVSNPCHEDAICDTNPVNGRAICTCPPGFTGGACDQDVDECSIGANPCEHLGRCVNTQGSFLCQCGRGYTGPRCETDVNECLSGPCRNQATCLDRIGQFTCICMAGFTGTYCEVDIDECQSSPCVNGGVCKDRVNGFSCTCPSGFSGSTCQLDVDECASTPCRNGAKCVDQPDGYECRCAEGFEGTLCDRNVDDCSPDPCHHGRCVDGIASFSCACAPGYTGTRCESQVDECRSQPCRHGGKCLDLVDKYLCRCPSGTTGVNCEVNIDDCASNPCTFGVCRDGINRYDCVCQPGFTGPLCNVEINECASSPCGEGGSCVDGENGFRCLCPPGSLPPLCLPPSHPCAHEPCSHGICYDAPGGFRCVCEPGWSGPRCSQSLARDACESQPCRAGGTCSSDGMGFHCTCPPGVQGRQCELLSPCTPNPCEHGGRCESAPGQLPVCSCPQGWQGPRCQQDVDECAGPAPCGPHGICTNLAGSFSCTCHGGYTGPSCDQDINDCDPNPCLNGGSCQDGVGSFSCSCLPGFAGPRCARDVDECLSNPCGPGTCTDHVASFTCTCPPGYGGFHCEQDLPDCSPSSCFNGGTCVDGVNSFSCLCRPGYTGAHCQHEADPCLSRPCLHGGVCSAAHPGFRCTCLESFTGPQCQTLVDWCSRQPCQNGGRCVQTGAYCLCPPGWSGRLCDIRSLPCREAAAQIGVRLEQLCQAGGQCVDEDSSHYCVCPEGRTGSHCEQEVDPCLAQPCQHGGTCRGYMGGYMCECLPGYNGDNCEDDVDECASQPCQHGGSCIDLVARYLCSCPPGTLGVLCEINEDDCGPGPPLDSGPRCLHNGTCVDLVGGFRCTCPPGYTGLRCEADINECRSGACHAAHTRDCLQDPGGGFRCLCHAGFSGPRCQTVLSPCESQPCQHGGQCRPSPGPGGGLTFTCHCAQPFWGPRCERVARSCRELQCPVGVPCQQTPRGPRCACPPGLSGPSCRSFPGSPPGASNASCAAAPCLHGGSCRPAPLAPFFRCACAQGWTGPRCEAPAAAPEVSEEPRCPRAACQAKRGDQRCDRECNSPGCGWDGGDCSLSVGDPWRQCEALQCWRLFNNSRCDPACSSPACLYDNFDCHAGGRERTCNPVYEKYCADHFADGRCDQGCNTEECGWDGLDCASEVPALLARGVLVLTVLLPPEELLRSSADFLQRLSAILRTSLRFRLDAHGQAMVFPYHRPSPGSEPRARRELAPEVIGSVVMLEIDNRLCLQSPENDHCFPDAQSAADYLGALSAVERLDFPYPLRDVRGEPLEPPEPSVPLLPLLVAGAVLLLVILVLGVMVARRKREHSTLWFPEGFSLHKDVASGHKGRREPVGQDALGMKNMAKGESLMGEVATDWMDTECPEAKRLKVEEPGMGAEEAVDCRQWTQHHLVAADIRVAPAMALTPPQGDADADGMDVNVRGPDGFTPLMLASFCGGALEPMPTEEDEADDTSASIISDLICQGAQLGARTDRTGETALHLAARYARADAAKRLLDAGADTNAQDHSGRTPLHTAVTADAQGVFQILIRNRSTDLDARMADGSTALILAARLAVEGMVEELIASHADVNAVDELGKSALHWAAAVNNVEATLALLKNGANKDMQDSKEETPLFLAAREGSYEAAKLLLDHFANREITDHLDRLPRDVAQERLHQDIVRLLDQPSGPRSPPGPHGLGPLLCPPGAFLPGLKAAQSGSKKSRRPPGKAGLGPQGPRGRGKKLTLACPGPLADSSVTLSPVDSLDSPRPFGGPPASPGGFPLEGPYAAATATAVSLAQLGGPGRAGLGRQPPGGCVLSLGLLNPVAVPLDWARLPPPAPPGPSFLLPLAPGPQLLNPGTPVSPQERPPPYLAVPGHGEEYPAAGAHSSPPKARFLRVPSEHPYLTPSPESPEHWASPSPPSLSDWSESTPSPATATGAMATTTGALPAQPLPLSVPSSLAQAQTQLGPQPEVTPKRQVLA
SMILES,half-life [1],IC50 [2]
"CCC[C@H](C(N)=O)[C@@H](CC(C)C)C(=O)N[C@H]1N=C(c2ccccc2)c2ccccc2N(C)C1=O [Comparative Compound 45, reference compound]",8 min,
"C=CC[C@H](C(N)=O)[C@@H](CC(C)C)C(=O)N[C@H]1N=C(c2ccccc2)c2cc(Cl)ccc2N(C)C1=O [Comparative Compound 46, reference compound]",6 min,
"CCCC[C@H](C(N)=O)[C@@H](CC(C)C)C(=O)N[C@H]1N=C(c2ccc(Cl)cc2)c2ccccc2N(C)C1=O [Comparative Compound 47, reference compound]",6 min,
"C=CC[C@H](C(N)=O)[C@@H](CC(C)C)C(=O)N[C@H]1N=C(c2ccccc2)c2ccccc2N(CCC)C1=O [Comparative Compound 48, reference compound]",3 min,
"CCc1cccc2c1NC(=O)[C@@H](NC(=O)[C@H](CCC(F)(F)F)[C@H](CCC(F)(F)F)C(N)=O)N=C2c1cccc(Cl)c1 [Example 2, (2R,3S)—N-((3S)-5-(3-Chlorophenyl)-9-ethyl-2-oxo-2,3-dihydro-1H-1,4-benzodiazepin-3-yl)-2,3-bis(3,3,3-trifluoropropyl)succinamide]",32 min,4.3 nM
"Cc1ccc(C2=N[C@H](NC(=O)[C@H](CCC(F)(F)F)[C@H](CCCC(F)(F)F)C(N)=O)C(=O)Nc3c(Cl)cccc32)cc1C [Example 4, (2R,3S)—N-(9-Chloro-5-(3,4-dimethylphenyl)-2-oxo-2,3-dihydro-1H-1,4-benzodiazepin-3-yl)-3-(4,4,4-trifluorobutyl)-2-(3,3,3-trifluoropropyl)succinamide]",31 min,7.3 nM
"Cc1cc(C)cc(C2=N[C@H](NC(=O)[C@H](CCC(F)(F)F)[C@H](CCCC(F)(F)F)C(N)=O)C(=O)Nc3c(Cl)cccc32)c1 [Example 5, (2R,3S)—N-(9-Chloro-5-(3,5-dimethylphenyl)-2-oxo-2,3-dihydro-1H-1,4-benzodiazepin-3-yl)-3-(4,4,4-trifluorobutyl)-2-(3,3,3-trifluoropropyl)succinamide]",33 min,4 nM
"CCc1cccc2c1NC(=O)[C@@H](NC(=O)[C@H](CCC(F)(F)F)[C@H](CCC(F)(F)F)C(N)=O)N=C2c1cccc(C)c1 [Example 6, (2R,3S)—N-((3S)-9-Ethyl-5-(3-methylphenyl)-2-oxo-2,3-dihydro-1H-1,4-benzodiazepin-3-yl)-2,3-bis(3,3,3-trifluoropropyl)succinamide]",33 min,4.5 nM
"Cc1cccc2c1NC(=O)[C@@H](NC(=O)[C@H](CCC(F)(F)F)[C@H](CCC(F)(F)F)C(N)=O)N=C2c1cccc(Cl)c1 [Example 7, (2R,3S)—N-((3S)-5-(3-Chlorophenyl)-9-methyl-2-oxo-2,3-dihydro-1H-1,4-benzodiazepin-3-yl)-2,3-bis(3,3,3-trifluoropropyl)succinamide]",> 120 min,
"Cc1cccc2c1NC(=O)[C@@H](NC(=O)[C@H](CCC(F)(F)F)[C@H](CCCC(F)(F)F)C(N)=O)N=C2c1cccc(Cl)c1 [Example 8, (2R,3S)—N-((3S)-5-(3-Chlorophenyl)-9-methyl-2-oxo-2,3-dihydro-1H-1,4-benzodiazepin-3-yl)-3-(4,4,4-trifluorobutyl)-2-(3,3,3-trifluoropropyl)succinamide]",71 min,11.6 nM
"Cc1cccc(C2=N[C@H](NC(=O)[C@H](CCC(F)(F)F)[C@H](CCC(F)(F)F)C(N)=O)C(=O)Nc3c2cccc3C(F)(F)F)c1 [Example 9, (2R,3S)—N-((3S)-5-(3-Methylphenyl)-2-oxo-9-(trifluoromethyl)-2,3-dihydro-1H-1,4-benzodiazepin-3-yl)-2,3-bis(3,3,3-trifluoropropyl)succinamide]",113 min,3.7 nM
"Cc1cc(C)cc(C2=N[C@H](NC(=O)[C@H](CCC(F)(F)F)[C@H](CCC(F)(F)F)C(N)=O)C(=O)Nc3c(Cl)cccc32)c1 [Example 10, (2R,3S)—N-((3S)-9-Chloro-5-(3,5-dimethylphenyl)-2-oxo-2,3-dihydro-1H-1,4-benzodiazepin-3-yl)-2,3-bis(3,3,3-trifluoropropyl)succinamide]",54 min,5.4 nM
"Cc1cccc(C2=N[C@H](NC(=O)[C@H](CCC(F)(F)F)[C@H](CCCC(F)(F)F)C(N)=O)C(=O)Nc3c2cccc3C(F)(F)F)c1 [Example 11, (2R,3S)—N-((3S)-5-(3-Methylphenyl)-2-oxo-9-(trifluoromethyl)-2,3-dihydro-1H-1,4-benzodiazepin-3-yl)-3-(4,4,4-trifluorobutyl)-2-(3,3,3-trifluoropropyl)succinamide]",42 min,
"Cc1cccc(C2=N[C@H](NC(=O)[C@H](CCC(F)(F)F)[C@H](CCC(F)(F)F)C(N)=O)C(=O)Nc3c2cccc3C(C)C)c1 [Example 12, (2R,3S)—N-((3S)-9-Isopropyl-5-(3-methylphenyl)-2-oxo-2,3-dihydro-1H-1,4-benzodiazepin-3-yl)-2,3-bis(3,3,3-trifluoropropyl)succinamide]",53 min,3.2 nM
"CC(C)c1cccc2c1NC(=O)[C@@H](NC(=O)[C@H](CCC(F)(F)F)[C@H](CCC(F)(F)F)C(N)=O)N=C2c1ccccc1 [Example 13, (2R,3S)—N-((3S)-9-Isopropyl-2-oxo-5-phenyl-2,3-dihydro-1H-1,4-benzodiazepin-3-yl)-2,3-bis(3,3,3-trifluoropropyl)succinamide]",48 min,
"Cc1cccc(C2=N[C@H](NC(=O)[C@H](CCC(F)(F)F)[C@H](CCCC(F)(F)F)C(N)=O)C(=O)Nc3c(OC4CC4)cccc32)c1 [Example 14, (2R,3S)—N-((3S)-9-(Cyclopropyloxy)-5-(3-methylphenyl)-2-oxo-2,3-dihydro-1H-1,4-benzodiazepin-3-yl)-3-(4,4,4-trifluorobutyl)-2-(3,3,3-trifluoropropyl)succinamide]",56 min,
"Cc1cccc(C2=N[C@H](NC(=O)[C@H](CCC(F)(F)F)[C@H](CCC(F)(F)F)C(N)=O)C(=O)Nc3c(OC4CC4)cccc32)c1 [Example 15, (2R,3S)—N-((3S)-9-(Cyclopropyloxy)-5-(3-methylphenyl)-2-oxo-2,3-dihydro-1H-1,4-benzodiazepin-3-yl)-2,3-bis(3,3,3-trifluoropropyl)succinamide]",101 min,
"NC(=O)[C@@H](CCCC(F)(F)F)[C@@H](CCC(F)(F)F)C(=O)N[C@H]1N=C(c2ccccc2)c2cccc(OC3CC3)c2NC1=O [Example 16, (2R,3S)—N-((3S)-9-(Cyclopropyloxy)-2-oxo-5-phenyl-2,3-dihydro-1H-1,4-benzodiazepin-3-yl)-3-(4,4,4-trifluorobutyl)-2-(3,3,3-trifluoropropyl)succinamide]",108 min,3.7 nM
"Cc1cccc(C2=N[C@H](NC(=O)[C@H](CCC(F)(F)F)[C@H](CCCC(F)(F)F)C(N)=O)C(=O)Nc3c(Cl)cccc32)c1 [Example 17, (2R,3S)—N-((3S)-9-Chloro-5-(3-methylphenyl)-2-oxo-2,3-dihydro-1H-1,4-benzodiazepin-3-yl)-3-(4,4,4-trifluorobutyl)-2-(3,3,3-trifluoropropyl)succinamide]",56 min,2.4 nM
"COc1cccc2c1NC(=O)[C@@H](NC(=O)[C@H](CCC(F)(F)F)[C@H](CCC(F)(F)F)C(N)=O)N=C2c1cccc(C)c1 [Example 29, (2R,3S)—N-((3S)-5-(3-Methylphenyl)-9-methoxy-2-oxo-2,3-dihydro-1H-1,4-benzodiazepin-3-yl)-2,3-bis(3,3,3-trifluoropropyl)succinamide]",98 min,
"NC(=O)[C@@H](CCC(F)(F)F)[C@@H](CCC(F)(F)F)C(=O)N[C@H]1N=C(c2ccc(CO)cc2)c2ccccc2NC1=O [Example 30, (2R,3S)—N-((3S)-5-(4-(Hydroxymethyl)phenyl)-2-oxo-2,3-dihydro-1H-1,4-benzodiazepin-3-yl)-2,3-bis(3,3,3-trifluoropropyl)succinamide]",92 min,
"Cc1cccc(C2=N[C@H](NC(=O)[C@H](CCC(F)(F)F)[C@H](CCC(F)(F)F)C(N)=O)C(=O)Nc3ccccc32)c1 [Example 32, (2R,3S)—N-((3S)-5-(3-Methylphenyl)-2-oxo-2,3-dihydro-1H-1,4-benzodiazepin-3-yl)-2,3-bis(3,3,3-trifluoropropyl)succinamide]",82 min,
"COc1cccc2c1NC(=O)[C@@H](NC(=O)[C@H](CCC(F)(F)F)[C@H](CCC(F)(F)F)C(N)=O)N=C2c1ccc(Cl)cn1 [Example 34, (2R,3S)—N-((3S)-5-(5-Chloro-2-pyridinyl)-9-methoxy-2-oxo-2,3-dihydro-1H-1,4-benzodiazepin-3-yl)-2,3-bis(3,3,3-trifluoropropyl)succinamide]",116 min,
"COc1ccc(C2=N[C@H](NC(=O)[C@H](CCC(F)(F)F)[C@H](CCC(F)(F)F)C(N)=O)C(=O)Nc3ccccc32)cc1 [Example 35, (2R,3S)—N-((3S)-5-(4-Methoxyphenyl)-2-oxo-2,3-dihydro-1H-1,4-benzodiazepin-3-yl)-2,3-bis(3,3,3-trifluoropropyl)succinamide]",118 min,
